No end group written: not given here.
Key:
[1] = tested on: NK-cell cytotoxicity against K562 target cells; assay type: cell-based, human
Description: The ability of specific albumin fragments to impact NK-cell cytotoxicity was also evaluated. In these experiments, synthetic peptides corresponding to albumin fragments (P3028, P3026, and P3027) (SEQ ID NOs: 185, 183, and 184, respectively) were prepared and the amount of lysis of K562 target cells was assessed (see Example 4).

K562 target cells = assay: NK-cell cytotoxicity (NKTEST); assay type: cell-based, human; conditions: 10 ug/ml, effector:target 40:1, four donors
Description: The NK-cell cytotoxic activity of blood mononuclear cells from four healthy donors was tested. Mononuclear cells were separated by standard Ficoll-paque Plus (Pharmacia AB, Sweden) density gradient centrifugation from heparinized blood obtained from healthy donors. NK cell cytotoxic activity of the mononuclear cells was then tested using a commercial kit (NKTEST, Orpegen Pharma GmblI, Heidelberg, Germany) following the manufacturers protocol. Briefly, the kit contains cryopreserved, NK-sensitive target cells (K562) labeled with a lipophilic green fluorescent membrane dye, which enables discrimination of effector and target cells. After incubation with effector cells, killed target cells are identified by a DNA-stain, which penetrates and specifically stain the nuclei of dead target cells. This way the percentage of killed targets can be determined by flow cytometry. The mononuclear cells were preincubated for 30 min at 37° C. with the indicated peptides (peptides have been described previously) at 10 ug/ml. Target cells were then added, giving an effector:target ratio of 40:1, and the cell mixture incubated at 37° C. for 3-4 hours. Samples were analysed on a FACSCalibur (BD Biosciences, San Jose, Calif.).

P3028 = P3028 (Homo sapiens, UniProt P02768); assay: Chip ELISA: binding of His-tag labeled P3028 to cyclic peptides, positional scan
Description: In order to identify cyclic peptides that bind to P3028, all possible variants of di- and tripeptides were synthesized on chips and the binding of the His-tag labeled P 3028 was analyzed using the ELISA-technique. Based on the identified binding motifs, looped 6-meres were produced and tested. […] Positional scans were performed in each position of the lead cyclic peptide was replaced with each of the other 19 L-amino acids. Binding of each of the substituted peptides was tested, and peptide sequences with even better binding capacity than that of the lead peptide were identified.

PBMCs = assay: IL-2 induced proliferation of PBMCs, ex vivo model (3H-thymidine); assay type: cell-based, human; conditions: PBMCs from healthy control samples, 7 days
Description: 100 μl of RPMI1640 supplemented with 200 IU/ml penicillin, […] streptomycin, 4 mM L-glutamine (all from Sigma Chemical Co. MO, US) and 20% heat-inactivated human serum (autologous or from cancer patients) were added to uncoated, HSA or HSA/IgG coated tissue culture microtiter plates. PBMC, isolated from healthy individuals or patients with metastatic renal cell carcinoma, were diluted in RPMI/2% HSA at a concentration of 5×10^5/ml and 100 μl were added to the microtiter wells. Interleukin-2 (IL-2, Proleukin, Chiron, NL), at a final concentration of 120 IU/well, was added to some wells. Cells were cultured for 7 days in a humidified, 5% CO2-atmosphere at 37° C. Proliferation was assayed by incorporation of 1.6 μCi/well of [^3H]-thymidine (Amersham Int., UK) during the last 18 hrs. Mean values of dpm (disintegrations per minute) of triplicates were used for the calculations.
Cultures for IL-2 induced proliferation was set up with PBMC from healthy donors and autologous serum as described above with the exception that PBMC were first pre-incubated for 30 min at room temperature with the indicated albumin peptides at a concentration of 10 μg/ml. […]
The effect of different peptides on IL-2 induced proliferation was analyzed in the human ex vivo model, using PBMCs from healthy control samples. […] Proliferation was measured as incorporation of ^3H-thymidine during the final 18 hours. […]

Sequence: ELFEQLGEYKFQNALLVR [P3027]
- effect on NK-cell cytotoxicity [1]: Inhibition was not seen
- effect on NK-cell cytotoxicity (percent specific lysis) (K562 target cells): Inhibition was not seen

Sequence: CLRLNVFCG [SEQ ID NO: 265]
- binding to P3028, positional scan (P3028): highest affinity

Sequence: CLRLIVMCG [SEQ ID NO: 266]
- binding to P3028, positional scan (P3028): highest affinity

Sequence: KVPQVSTPTLVEVSR (listed as Homo sapiens) [P3029]
- effect on IL-2 induced proliferation (PBMCs): none of the other peptides identified by their binding to the artificial cell surface had any inhibitory activity

— patent US9657059B2, “Immune system modulators” (Canimguide Therapeutics AB, priority 2013, dated 2017)
